Experimental data: PMC12040169 (PLOS Biology, 2025)

Assay: in vitro
Settings: human, hela cells

Structure (SMILES) | viability at 28.5 h, 10 µM
O=C(Nc1ccc(Cl)cc1)c1cccc(-n2cnnn2)c1 [CBK287791] | 84.2%

Same assay, conditions: human, hela cells, % viability

Structure (SMILES) | viability at 28.5 h, 10 µM
COc1ccc(NC(=O)c2cc3nc(C)ccc3o2)cc1 [CBK287663] | 102%
Cc1ccc(Nc2nc(N3CCOCC3)nc3nccnc23)cc1 [CBK287664] | 120%
Cc1nc2sccn2c(=O)c1NC(=O)c1ccccn1 [CBK287665] | 87.2%
O=C(Cn1c(=O)n(Cc2cccnc2)c(=O)c2ncccc21)NC1CCCC1 [CBK287666] | 103%
COc1ccc(NC(=O)c2cc(C(C)C)n(-c3nc4ccccc4s3)n2)cc1 [CBK287667] | 100%
Cc1ccc2nc(NC(=O)c3cc(C)n(C)n3)sc2c1 [CBK287668] | 83.9%
CNC(=O)Cn1nc(C)c2cnn(-c3ccccc3)c2c1=O [CBK287669] | 92.8%
Cc1ccc(CC(=O)N2CC(=O)Nc3ccccc32)cc1 [CBK287670] | 86.2%
Cc1cnc2n(c1=O)C(CC(=O)NCc1ccncc1)CS2 (centres unmarked) [CBK287671] | 111%
Cc1ccc(NC(=O)c2cnc(SCc3ccc(F)cc3)n(C)c2=O)cc1C [CBK287674] | 90.5%
O=C(CSc1nnc2ccc(-c3ccccc3)nn12)N1CCCCC1 [CBK287678] | 100%
Cc1cc(NC(=O)CSc2nnc3ccc(-c4ccccc4)nn23)no1 [CBK287679] | 108%
COc1ccc(-c2ccc3nnc(SCc4cccnc4)n3n2)cc1 [CBK287680] | 108%
O=C(Nc1cccc(-c2ccc3nncn3n2)c1)c1ccc(F)cc1 [CBK287682] | 87.1%
O=C(CSc1nnc2[nH]c(=O)ccn12)NCc1ccccc1Cl [CBK287684] | 95.1%
Cc1ccccc1-n1ncc2c(=O)n(Cc3ccccc3)cnc21 [CBK287690] | 96.9%
O=C(Cn1cnc2c(cnn2-c2cccc(Cl)c2)c1=O)N1CCCCC1 [CBK287691] | 83.3%
Cc1cccc(-n2ncc3c(=O)n(CC(=O)NC4CCCCC4)cnc32)c1C [CBK287694] | 104%
Cc1ccc(-n2ncc3c(=O)n(Cc4ccccc4C)cnc32)c(C)c1 [CBK287695] | 107%
CC(=O)N(Cc1cccnc1)c1nc2cc3c(cc2s1)OCCO3 [CBK287696] | 99.9%
COc1cccc(C(=O)Nc2nc(-c3ccccc3)cs2)c1OC [CBK287697] | 104%
COc1cc(-c2nnc(NC(=O)c3ccc(C)cc3)o2)cc(OC)c1OC [CBK287699] | 92.2%
CCCC(=O)Nc1nnc(-c2ccc(C)cc2C)o1 [CBK287700] | 107%

Structure (SMILES) | viability at 28.5 h, 10 µM
COc1cc2nc(NC(=O)C3COc4ccccc4O3)sc2cc1OC (centres unmarked) [CBK287702] | 109%
Cc1ccc(-c2csc(NC(=O)CS(=O)(=O)c3ccccc3)n2)cc1 [CBK287707] | 89.2%
Cc1ccc(NC(=O)c2cnc3sc(C)cn3c2=O)cc1 [CBK287711] | 97.8%
COc1ccc(NC(=O)c2cnc3sc(C)cn3c2=O)c(OC)c1 [CBK287712] | 87%
CS(=O)(=O)c1ccc(C(=O)Nc2nc(-c3ccccc3)cs2)cc1 [CBK287716] | 102%
O=C(CSc1ccc(-c2ccc(-n3ccnc3)cc2)nn1)NCc1ccco1 [CBK287717] | 62.2%
CCC(=O)N1CCN(c2nc3ccc(OC)cc3s2)CC1 [CBK287721] | 92.2%
O=C(c1cnccn1)N1CCN(c2nc3c(F)cccc3s2)CC1 [CBK287722] | 91.6%
COc1ccc(NC(=O)C(=O)NCc2ccncc2)cc1 [CBK287723] | 105%
COc1ccccc1NC(=O)C(=O)NCc1cccnc1 [CBK287724] | 97.5%
Cc1ccc(C(=O)Nc2cccc(-n3c(C)nc4ccccc4c3=O)c2)cc1 [CBK287725] | 104%
CS(=O)(=O)c1cccc(-c2nnc(NC(=O)c3ccccc3)o2)c1 [CBK287726] | 82.4%
COc1ccccc1Nc1nc(N2CCOCC2)nc(N2CCOCC2)n1 [CBK287731] | 111%
Cc1ccc(Nc2nc(N3CCOCC3)nc(N3CCOCC3)n2)cc1 [CBK287732] | 118%
O=C(CSc1nc(-c2ccccc2)cc(=O)[nH]1)NCc1ccccc1 [CBK287734] | 82.7%
O=C(Cc1ccc(F)cc1)Nc1nc(-c2cccs2)cs1 [CBK287736] | 82.3%
Cc1cc2nc(N3CCN(C(=O)c4ccc(C#N)cc4)CC3)sc2cc1C [CBK287737] | 98.8%
O=C(Nc1ccncc1)c1cccn(Cc2ccccc2F)c1=O [CBK287738] | 111%
COc1cccc(-n2c(=O)[nH]c3c(C(N)=O)nc(-c4ccccc4)nc32)c1 [CBK287740] | 121%
O=C(CSc1nnc(-c2cccnc2)o1)Nc1ccccc1 [CBK287742] | 82.6%
COc1ccccc1NC(=O)CSc1nnc(-c2ccncc2)o1 [CBK287743] | 87%
O=C(NCc1n[nH]c(=O)c2ccccc12)Nc1ccc(F)cc1 [CBK287744] | 94.2%
CC(=O)Nc1ccc(Nc2cc(C)nc(-n3nc(C)cc3C)n2)cc1 [CBK287746] | 103%

Structure (SMILES) | viability at 28.5 h, 10 µM
CCSc1c(C)cnc2c1c(=O)n(C)c(=O)n2C [CBK287748] | 99.8%
O=C(Nc1ccc2ncsc2c1)C1COc2ccccc2O1 (centres unmarked) [CBK287750] | 95.6%
COc1ccc(SCC(=O)Nc2nccs2)cc1 [CBK287751] | 83.4%
O=C(NCCc1c[nH]c2ccccc12)C(=O)Nc1ccncc1 [CBK287754] | 101%
O=C(Nc1nc(-c2cc3ccccc3o2)cs1)c1ccc(F)cc1 [CBK287756] | 114%
Cc1ccc(-c2cnc(SCC(N)=O)n2-c2ccccc2)cc1 [CBK287757] | 113%
CC(=O)c1sc(NC(=O)Cc2ccc(C)cc2)nc1C [CBK287760] | 89.3%
CCCC(=O)Nc1nc(-c2ccc(C)cc2)c(C)s1 [CBK287763] | 110%
Cc1c(C(=O)Nc2nccs2)nnn1-c1ccccc1 [CBK287766] | 83.9%
O=C(CCCn1c(=O)[nH]c2ccsc2c1=O)Nc1ccc(F)cc1 [CBK287769] | 93.3%
CCOc1ccc(NC(=O)c2c(O)c3ccccc3n(CC)c2=O)cc1 [CBK287771] | 107%
CC(=O)c1ccc(NC(=O)Cn2cnc3c(sc4ncccc43)c2=O)cc1 [CBK287773] | 95.4%
CC(=O)Nc1c(-c2ccc(C)cc2)c(=O)c2ccccc2n1C [CBK287775] | 88%
CN(C)CCCN1C(=O)C(O)=C(C(=O)c2ccncc2)C1c1ccccc1 (centres unmarked) [CBK287779] | 107%
COc1ccc2c(=O)c3c(oc2c1)C(=O)N(CCN(C)C)C3c1ccccn1 (centres unmarked) [CBK287781] | 98.3%
CCc1ccc(S(=O)(=O)Nc2cccnc2)cc1 [CBK287782] | 87.5%
NC(=O)C1CCN(c2ncnc3c2oc2ccccc23)CC1 [CBK287789] | 87.6%
NC(=O)CSc1nnc2ccc3ccccc3n12 [CBK287794] | 110%
O=C(c1ccc(F)cc1)N1CCN(c2ccccn2)CC1 [CBK287795] | 104%
Cc1ccccc1-n1ncc2c1ncn1nc(-c3ccccc3)nc21 [CBK287797] | 94.3%
COc1ccc(OCC(=O)Nc2nonc2-c2ccccc2)cc1 [CBK287798] | 93.9%
Cc1ccc2nc(C)cc(NC(=O)c3ccncc3)c2c1 [CBK287801] | 81.5%
Cc1ccc(C2=NN(C(=O)CCC(=O)O)C(c3ccc4nccnc4c3)C2)cc1 (centres unmarked) [CBK287802] | 109%

Structure (SMILES) | viability at 28.5 h, 10 µM
O=C(Nc1ccncc1)c1ccc(N2C(=O)c3ccccc3C2=O)cc1 [CBK287803] | 113%
COc1ccccc1-c1cc2nc(C)cc(Nc3ccccc3)n2n1 [CBK287806] | 97.3%
Cc1cc(C)cc(NC(=O)Cn2cnc3c(sc4ccccc43)c2=O)c1 [CBK287807] | 82.5%
O=c1c2[nH]c3ccccc3c2ncn1Cc1ccccc1 [CBK287809] | 103%
O=c1c2scc(-c3cccc(F)c3)c2ncn1Cc1ccc(F)cc1 [CBK287810] | 100%
Cn1nc2n(C)c(=O)c3ccc(C(=O)NC4CCCC4)cc3n2c1=O [CBK287811] | 113%
O=c1cc(Cn2ccnc2)c2cc3c(cc2o1)CCC3 [CBK287813] | 88.8%
COc1cc2c(cc1OC)CN(C(=O)CSc1nnc3ccccn13)CC2 [CBK287814] | 94.8%
Cc1cccc2c1ncn1c(=O)n(CC(=O)Nc3cccc(Cl)c3)nc21 [CBK287815] | 81.8%
COc1cccc(Nc2c(C(=O)N3CCCCC3)cnc3nc(C)ccc23)c1 [CBK287817] | 96%
O=C(Cn1c(=O)[nH]c2c(oc3ccccc32)c1=O)Nc1ccccc1 [CBK287818] | 104%
Cc1cc(C)c(NC(=O)CSc2ncccc2-c2nc(C)no2)c(C)c1 [CBK287821] | 86.7%
O=C(Cn1cnc(-c2noc(-c3cccnc3)n2)c1)Nc1ccc(Cl)cc1 [CBK287822] | 96.2%
O=C(NCc1ccco1)c1ccc2c(=O)n(-c3ccccc3)c(=O)[nH]c2c1 [CBK287823] | 83.7%
COc1ccc(OC)c(-n2c(=O)[nH]c3ccccc3c2=O)c1 [CBK287825] | 110%
COc1ccc2nc(-c3cccc(NC(=O)c4ccc(F)cc4)c3)cn2n1 [CBK287826] | 104%
COc1ccc2nc(-c3ccc(F)c(NC(=O)c4ccccc4)c3)cn2n1 [CBK287827] | 110%
CC(=O)Nc1cccc(NC(=O)CSc2ncnc3c2nnn3C)c1 [CBK287829] | 91.9%
Cn1nnc2c(N3CCN(C(=O)c4ccccc4)CC3)ncnc21 [CBK287830] | 90.6%
COc1ccc(C(=O)Nc2noc3nc(C)ccc23)cc1OC [CBK287832] | 89.7%
Cn1nccc1C(=O)Nc1nc(-c2ccccc2)cs1 [CBK287833] | 83.8%
CS(=O)(=O)N1CCCC(C(=O)Nc2nccs2)C1 (centres unmarked) [CBK287834] | 100%
